# Values of other authors as cited in patent publication US5482954A, “Signal transduction inhibitor triazole and diazole compounds” (priority 1994, dated 1996).
# System: production of PGE2 and PGF2a
# Settings: Honn, et al.; cited from earlier work
structure (smiles),measurement,value
COc1ccc2c(c1)c(CC(=O)O)c(C)n2C(=O)c1ccc(Cl)cc1 [indomethacin],inhibition of phorbol ester-stimulated production of PGE2 and PGF2a,selectively inhibited
